Results as given in ChEMBL document CHEMBL4665906, “Novel Potassium Channel Inhibitors” (ACS Med Chem Lett, 2020).

Biological target: Intermediate conductance calcium-activated potassium channel protein 4 (Homo sapiens, UniProt O15554)
Assay: Inhibition of Kca3.1 in human erythrocytes
Format: cell-based

Intermediate conductance calcium-activated potassium channel protein 4, sequence (O15554 whole entry): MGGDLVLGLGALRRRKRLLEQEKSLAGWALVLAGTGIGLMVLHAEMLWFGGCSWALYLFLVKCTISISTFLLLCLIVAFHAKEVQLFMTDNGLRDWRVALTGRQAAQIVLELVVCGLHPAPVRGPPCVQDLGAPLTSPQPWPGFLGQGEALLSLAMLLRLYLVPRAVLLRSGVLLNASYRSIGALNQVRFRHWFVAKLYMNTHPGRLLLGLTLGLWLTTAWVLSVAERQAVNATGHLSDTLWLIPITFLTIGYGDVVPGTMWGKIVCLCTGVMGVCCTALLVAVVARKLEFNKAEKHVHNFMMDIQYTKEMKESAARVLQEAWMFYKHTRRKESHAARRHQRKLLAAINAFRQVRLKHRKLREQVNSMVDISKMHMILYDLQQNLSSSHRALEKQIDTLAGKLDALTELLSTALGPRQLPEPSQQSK

Structure (SMILES) | IC50 [nM]
COC(=O)N(C[C@H]1CCCN1C)C1(c2ccc(F)c(C(F)(F)F)c2)CC1 | 8.1
COC(=O)N(CC(C)(C)N)C1(c2ccc(F)c(C(F)(F)F)c2)CC1 | 8.6
COC(=O)N(C[C@@H]1CCCN1)C1(c2ccc(F)c(OC(F)(F)F)c2)CC1 | 8.7
